What was measured:
HUT78 = assay: CellTiter-Blue cell-based survival/proliferation assay, HUT78; conditions: Homo sapiens, Lymphoma cell line HUT78, 48 h, read-out: Anti-tumoral activity (measured IC50) HUT78
In short: (§1)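 Compounds, diluted tenfold serially over 0–10 μM, are applied to 1·10^4 seeded cells per well for 48 h at 37 °C. Resorufin formed during a further 4 h with CellTiter-Blue is detected by fluorescence emission at 590 nm.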

HEP2 = assay: CellTiter-Blue cell-based survival/proliferation assay, HEP2; conditions: Homo sapiens, HEp-2; HEP2 head & neck tumor cell line, 48 h
In short: as §1

PANC1 = assay: CellTiter-Blue cell-based survival/proliferation assay, PANC1; conditions: Homo sapiens, PANC-1; PANC_1 pancreas tumor cell line, 48 h
In short: as §1

DLD1 = assay: CellTiter-Blue cell-based survival/proliferation assay, DLD1; conditions: Homo sapiens, DLD-1; DLD_1 colorectal tumor cell line, 48 h
In short: as §1

MDAMB231 = assay: CellTiter-Blue cell-based survival/proliferation assay, MDAMB231; conditions: Homo sapiens, MDA-MB-231; MDAMB231 breast tumor cell line, 48 h
In short: as §1

KARPAS299 = assay: CellTiter-Blue cell-based survival/proliferation assay, KARPAS299; conditions: Homo sapiens, KARPAS-299, Lymphoma cell line KARPAS299, 48 h, read-out: Anti-tumoral activity (measured IC50) KARPAS299
In short: as §1

HCT116 = assay: CellTiter-Blue cell-based survival/proliferation assay, HCT116; conditions: Homo sapiens, HCT-116; HCT116 colorectal tumor cell line, 48 h
In short: as §1

PC3 = assay: CellTiter-Blue cell-based survival/proliferation assay, PC3; conditions: Homo sapiens, PC-3; PC3 prostate tumor cell line, 48 h
In short: as §1

PLCPRF5 = assay: CellTiter-Blue cell-based survival/proliferation assay, PLCPRF5; conditions: Homo sapiens, PLC-PRF-5; PLC_PRF5 liver tumor cell line, 48 h
In short: as §1

SW579 = assay: CellTiter-Blue cell-based survival/proliferation assay, SW579; conditions: Homo sapiens; SW579 head & neck tumor cell line, 48 h
In short: as §1

RL = assay: CellTiter-Blue cell-based survival/proliferation assay, RL; conditions: Homo sapiens, Lymphoma cell line RL, 48 h, read-out: Anti-tumoral activity (measured IC50) RL
Description: Cell-Based Proliferation Screening of Compounds
CellTiter-Blue cell-based survival/proliferation assay (Promega G8080) was performed on tumor cell lines. A total of 1·10^4 cells/well/50 μl were seeded in a 96-wells plate. Treatment was initiated by addition of a 2× drug solution of 1/10 serial dilutions ranging from 0 to 10 μM. Cells were grown for 48 h at 37° C. and then incubated with 10 μl/well of Promega CellTiter-Bleue reagent for 4 h at 37° C. The amount of resorufin dye formed was quantified by its fluorescence emission at 590 nm using a scanning multiwell spectrophotometer (OPTIMA, BMG labtech, France). A blank well without cells was used as a background control for the spectrophotometer.

CLS354 = assay: CellTiter-Blue cell-based survival/proliferation assay, CLS354; conditions: Homo sapiens, CLS-354; CLS354_4 head & neck tumor cell line, 48 h
In short: as §1

DU145 = assay: CellTiter-Blue cell-based survival/proliferation assay, DU145; conditions: Homo sapiens, DU-145; DU145 prostate tumor cell line, 48 h
In short: as §1

A498 = assay: CellTiter-Blue cell-based survival/proliferation assay, A498; conditions: Homo sapiens; A498 kidney tumor cell line, 48 h
In short: as §1

HEPG2 = assay: CellTiter-Blue cell-based survival/proliferation assay, HEPG2; conditions: Homo sapiens; HEPG2 liver tumor cell line, 48 h
In short: as §1

[1] = system: panel of about 34 human tumor cell lines; assay: Cell-based proliferation screening on panel of tumor cell lines; conditions: solid tumor cell line, cell line unknown, 48 h, read-out: IC50, solid tumor cell line of column 6 (last section of Table 3)
In short: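 CellTiter-Blue survival assay with 1·10^4 cells/well, each line treated 48 h at 37° C with 1/10 serial dilutions from 0 to 10 μM. Resorufin formed during a 4 h reagent incubation is read by fluorescence at 590 nm. A cell-free blank serves as background.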

BXPC3 = assay: CellTiter-Blue cell-based survival/proliferation assay, BXPC3; conditions: Homo sapiens, BXPC-3; BXPC3 pancreas tumor cell line, 48 h
In short: as §1

BT20 = assay: CellTiter-Blue cell-based survival/proliferation assay, BT20; conditions: Homo sapiens, BT-20; BT20 breast tumor cell line, 48 h
In short: as §1

TOV112D = assay: CellTiter-Blue cell-based survival/proliferation assay, TOV112D; conditions: Homo sapiens; TOV112D ovary tumor cell line, 48 h
In short: as §1

HGC27 = assay: CellTiter-Blue cell-based survival/proliferation assay, HGC27; conditions: Homo sapiens, HGC-27; HGC27 stomach tumor cell line, 48 h
In short: as §1

OPM2 = assay: CellTiter-Blue cell-based survival/proliferation assay, OPM2; conditions: Homo sapiens, OPM-2, Myeloma cell line OPM2, 48 h, read-out: Anti-tumoral activity (measured IC50) OPM2
In short: as §1

HL60 = assay: CellTiter-Blue cell-based survival/proliferation assay, HL60; conditions: Homo sapiens, HL-60, Leukemia cell line HL60, 48 h, read-out: Anti-tumoral activity (measured IC50) HL60
In short: as §1

CALU6 = assay: CellTiter-Blue cell-based survival/proliferation assay, CALU6; conditions: Homo sapiens, Calu-6; CALU6 lung tumor cell line, 48 h
In short: as §1

AGS = assay: CellTiter-Blue cell-based survival/proliferation assay, AGS; conditions: Homo sapiens; AGS stomach tumor cell line, 48 h
In short: as §1

ACHN = assay: CellTiter-Blue cell-based survival/proliferation assay, ACHN; conditions: Homo sapiens; ACHN kidney tumor cell line, 48 h
In short: as §1

A549 = assay: CellTiter-Blue cell-based survival/proliferation assay, A549; conditions: Homo sapiens; A549 lung tumor cell line, 48 h
In short: as §1

MESSA = assay: CellTiter-Blue cell-based survival/proliferation assay, MESSA; conditions: Homo sapiens, MES-SA; MESSA ovary tumor cell line, 48 h
In short: as §1

H1299 = assay: CellTiter-Blue cell-based survival/proliferation assay, H1299; conditions: Homo sapiens, NCI-H1299; H1299 lung tumor cell line, 48 h
In short: as §1

Measured: IC50

CCOCc1ccc(C)c(Nc2ncc(-c3ccc(-n4ccnc4)cc3)o2)c1 [Example 037, (5-Ethoxymethyl-2-methyl-phenyl)-[5-(4-imidazol-1-yl-phenyl)-oxazol-2-yl]-amine]
> 1 µM: all assays above

Reference: patent US10570122B2, “Compounds with anti-tumoral activity” (AB Science, priority 2015, dated 2020)
